Patent publication US20140011799A1 (Bristol-Myers Squibb Company, priority 2012, published 2014)

target: T1, Endothelial lipase (EL) (Homo sapiens, UniProt Q9Y5X9); assay: Endothelial lipase (EL) enzymatic assay, fluorescent substrate A10070 in DMPG vesicles; type: biochemical; conditions: EL from conditioned media of HT-1080 cells; compound preincubated 30 min at 37° C; read-out: EL IC50
T1 construct: HT-1080 cells that were transformed using RAGE technology (Athersys) to overexpress endogenous EL; endogenous in cells; conditioned medium used
T1 sequence (Q9Y5X9 21-500): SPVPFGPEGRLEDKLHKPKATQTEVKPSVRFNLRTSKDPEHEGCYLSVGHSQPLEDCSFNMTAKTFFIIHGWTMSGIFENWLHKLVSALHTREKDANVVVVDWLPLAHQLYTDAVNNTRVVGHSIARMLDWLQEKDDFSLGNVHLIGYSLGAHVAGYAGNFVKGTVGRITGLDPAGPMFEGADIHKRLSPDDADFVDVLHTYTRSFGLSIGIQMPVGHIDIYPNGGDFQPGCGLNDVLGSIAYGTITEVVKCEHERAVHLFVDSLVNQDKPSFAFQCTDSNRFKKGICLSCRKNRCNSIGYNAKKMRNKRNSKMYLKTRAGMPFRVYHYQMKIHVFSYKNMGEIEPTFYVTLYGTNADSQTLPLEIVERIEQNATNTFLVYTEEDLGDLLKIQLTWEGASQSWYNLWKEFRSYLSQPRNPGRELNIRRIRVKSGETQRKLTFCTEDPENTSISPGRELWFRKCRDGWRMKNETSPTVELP
Protocol: Endothelial lipase (EL) and hepatic lipase (HL) activities were measured using a fluorescent substrate, A10070, (Invitrogen, CA) doped into an artificial vesicle containing DMPG (Avanti Polar Lipids) as the excipient. Vesicles were prepared by combining 571 μL of 29 mM DMPG in a 1:1 mixture of MeOH and CHCl3 with 2000 μL of 1 mM A10070 in a 1:1 mixture of MeOH and CHCl3. The mixture was dried under nitrogen in multiple vials then resuspended in 20 mL total volume of 50 mM HEPES pH 8.0 buffer containing 50 mM NaCl and 0.2 mM EDTA. The sample was allowed to sit at room temperature for 15 min and then was sonicated 3×4 mins on ice with a Branson Sonicator using duty cycle 1. This preparation provides vesicles with a mole fraction of 0.11 for the FRET substrate.
The enzymatic assay was measured using 384-well white Optiplates. Each well contained 20 μL of assay buffer (50 mM HEPES pH 8.0, 50 mM NaCl and 1 mM CaCl2) and 0.25 μL of a DMSO solution containing a compound of interest. EL or HL (10 μL) was added and allowed to incubate with the compound for 30 min at 37° C. The source of EL was conditioned media obtained from HT-1080 cells that were transformed using RAGE technology (Athersys) to overexpress endogenous EL, and HL was partially purified from conditioned media obtained from COS cells overexpressing HL. The reaction was started by the addition of 10 μL of a 1:10 dilution of vesicles. The final total reaction volume was […]. The reaction rates were measured on a Gemini plate reader with an excitation wavelength of 490 nm and an emission wavelength of 530 nm. Readings were taken over a period of 60 minutes, and the slope between 300 and 900 secs of the readout was used to calculate the rate of the reaction.

SMILES	IC50 [nM]
NS(=O)(=O)NCc1nnc(C(c2nc3ccc(-c4ccc(F)nc4)cc3s2)S(=O)(=O)Cc2ccccc2)o1 (stereo not drawn) [Example 75, N-((5-((benzylsulfonyl) (6-(6-fluoro-3-pyridinyl)-1,3-benzothiazol-2-yl)methyl)-1,3,4-oxadiazol-2-yl)methyl)sulfamide]	< 10
Cc1nn(C)cc1-c1ccc2nc(C(c3nnc(CC4SC(=O)NC4=O)o3)S(C)(=O)=O)sc2c1 (stereo not drawn) [Example 20, 5-((5-((6-(1,3-dimethyl-1H-pyrazol-4-yl)benzo[d]thiazol-2-yl)(methylsulfonyl)methyl)-1,3,4-oxadiazol-2-yl)methyl) thiazolidine-2,4-dione]	< 10
CC(C)(C)OC(=O)NCc1nnc(C(c2nc3ccc(-c4ccccc4)cc3s2)S(C)(=O)=O)o1 (stereo not drawn) [Example 83, tert-Butyl ((5-((methylsulfonyl)(6-phenylbenzo[d]thiazol-2-yl)methyl)-1,3,4-oxadiazol-2-yl)methyl)carbamate]	< 10
Cc1nccn1-c1nc(-c2ccc3nc(C(c4nnc(CC5SC(=O)NC5=O)o4)S(C)(=O)=O)sc3c2)cs1 (stereo not drawn) [Example 25, 5-((5-((6-(2-(2-methyl-1H-imidazol-1-yl)thiazol-4-yl)benzo[d]thiazol-2-yl)(methylsulfonyl)methyl)-1,3,4-oxadiazol-2-yl)methyl) thiazolidine-2,4-dione]	< 10
CCS(=O)(=O)C(c1nnc(CNS(N)(=O)=O)o1)c1nc2ccc(-c3ccccc3)cc2s1 (stereo not drawn) [Example 65, N-({5-[(ethylsulfonyl) (6-phenyl-1,3-benzothiazol-2-yl)methyl]-1,3,4-oxadiazol-2-yl}methyl)sulfuric diamide]	< 10
CC(c1nnc(CNS(N)(=O)=O)o1)(c1nc2ccc(-c3ccccc3)cc2s1)S(C)(=O)=O (single isomer, unassigned) [Reference 1, Isomer B, N-((5-(1-(Methylsulfonyl)-1-(6-phenyl-1,3-benzothiazol-2-yl)ethyl)-1,3,4-oxadiazol-2-yl)methyl)sulfamide, reference compound]	5200
NS(=O)(=O)NCc1nnc(C(c2nc3ccc(-c4ccccc4)cc3s2)S(=O)(=O)Cc2cccc(C(F)(F)F)c2)o1 (stereo not drawn) [Example 62, N-((5-(((3-(trifluoromethyl)benzyl)sulfonyl) (6-phenyl-1,3-benzothiazol-2-yl)methyl)-1,3,4-oxadiazol-2-yl)methyl)sulfamide]	< 10
CC1(Cc2nnc(C(c3nc4ccc(-c5ccc(F)nc5)cc4s3)S(=O)(=O)Cc3ccccc3)o2)SC(=O)NC1=O (single isomer, unassigned; isomer b) [Example 4, 5-((5-((benzylsulfonyl)(6-(6-fluoropyridin-3-yl)benzo[d]thiazol-2-yl)methyl)-1,3,4-oxadiazol-2-yl)methyl)-5-methylthiazolidine-2,4-dione (Isomer B)]	< 10
CN(Cc1nnc(C(c2nc3ccc(-c4ccccc4)cc3s2)S(=O)(=O)Cc2ccccc2)o1)S(N)(=O)=O (stereo not drawn) [Example 81]	32
CS(=O)(=O)C(c1nnc(CNS(N)(=O)=O)o1)c1nc2ccc(-c3ccc(C(=O)NCC(F)(F)F)cc3)cc2s1 (stereo not drawn) [Example 78, 4-(2-((methylsulfonyl) (5-((sulfamoylamino)methyl)-1,3,4-oxadiazol-2-yl)methyl)benzo[d]thiazol-6-yl)-N-(2,2,2-trifluoroethyl) benzamide]	< 10
NS(=O)(=O)NCc1nnc(C(c2nc3ccc(-c4ccccc4)cc3s2)S(=O)(=O)Cc2ccc(F)cc2)o1 (stereo not drawn) [Example 69, N-((5-(((4-fluorobenzyl)sulfonyl)(6-phenyl-1,3-benzothiazol-2-yl)methyl)-1,3,4-oxadiazol-2-yl)methyl)sulfamide]	< 10
CC1(Cc2nnc(C(c3nc4ccc(-c5ccc(C(=O)N6CCOCC6)cc5)cc4s3)S(=O)(=O)Cc3ccccc3)o2)NC(=O)NC1=O (stereo not drawn) [Example 8, 5-((5-((benzylsulfonyl)(6-(4-(morpholine-4-carbonyl)phenyl)benzo[d]thiazol-2-yl)methyl)-1,3,4-oxadiazol-2-yl)methyl)-5-methylimidazolidine-2,4-dione]	62
CS(=O)(=O)C(c1nnc(CC2NC(=O)NC2=O)o1)c1nc2ccc(-c3ccccc3)cc2s1 (stereo not drawn) [Example 30, 5-((5-((methylsulfonyl) (6-phenyl-1,3-benzothiazol-2-yl)methyl)-1,3,4-oxadiazol-2-yl)methyl)-2,4-imidazolidinedione]	16
Cc1cccc(CS(=O)(=O)C(c2nnc(CNS(N)(=O)=O)o2)c2nc3ccc(-c4ccccc4)cc3s2)c1 (stereo not drawn) [Example 64, N-((5-(((3-methylbenzyl)sulfonyl)(6-phenyl-1,3-benzothiazol-2-yl)methyl)-1,3,4-oxadiazol-2-yl)methyl)sulfamide]	< 10
CS(=O)(=O)C(c1nnc(CS(=O)(=O)O)o1)c1nc2ccc(-c3ccccc3)cc2s1 (stereo not drawn) [Example 28, (5-((methylsulfonyl) (6-phenyl-1,3-benzothiazol-2-yl)methyl)-1,3,4-oxadiazol-2-yl) methanesulfonic acid]	< 10
NS(=O)(=O)NCc1nnc(C(c2nc3ccc(-c4ccccc4)cc3s2)S(=O)(=O)Cc2ccc(C(F)(F)F)cc2)o1 (stereo not drawn) [Example 48, N-((5-((6-phenyl-1,3-benzothiazol-2-yl)((4-(trifluoromethyl)benzyl)sulfonyl)methyl)-1,3,4-oxadiazol-2-yl)methyl)sulfamide]	< 10
CS(=O)(=O)C(c1nnc(CS(N)(=O)=O)o1)c1nc2ccc(-c3ccccc3)cc2s1 (stereo not drawn) [Example 89, (5-((Methylsulfonyl)(6-phenylbenzo[d]thiazol-2-yl)methyl)-1,3,4-oxadiazol-2-yl)methanesulfonamide]	< 10
NS(=O)(=O)NCc1nnc(C(c2nc3ccc(-c4ccccc4)cc3s2)S(=O)(=O)Cc2ccc(Cl)cc2)o1 (stereo not drawn) [Example 58, N-((5-(((4-chlorobenzyl)sulfonyl)(6-phenyl-1,3-benzothiazol-2-yl)methyl)-1,3,4-oxadiazol-2-yl)methyl)sulfamide]	< 10
NS(=O)(=O)NCc1nnc(C(c2nc3ccc(-c4ccccc4)cc3s2)S(=O)(=O)CC2CCCCC2)o1 (stereo not drawn) [Example 71, N-((5-(((cyclohexylmethyl)sulfonyl)(6-phenyl-1,3-benzothiazol-2-yl)methyl)-1,3,4-oxadiazol-2-yl)methyl)sulfamide]	< 10
O=C(OCc1ccccc1)N1CCC(S(=O)(=O)C(c2nnc(CS(=O)(=O)O)o2)c2nc3ccc(-c4ccccc4)cc3s2)CC1 (stereo not drawn) [Example 32, (5-(((1-((benzyloxy)carbonyl)-4-piperidinyl)sulfonyl)(6-phenyl-1,3-benzothiazol-2-yl)methyl)-1,3,4-oxadiazol-2-yl)methanesulfonic acid]	< 10
CC1(Cc2nnc(C(c3nc4ccc(-c5ccc(F)nc5)cc4s3)S(=O)(=O)Cc3ccccc3)o2)NC(=O)NC1=O (single isomer, unassigned; isomer b) [Example 7, 5-((5-((benzylsulfonyl)(6-(6-fluoropyridin-3-yl)benzo[d]thiazol-2-yl)methyl)-1,3,4-oxadiazol-2-yl)methyl)-5-methylimidazolidine-2,4-dione (Isomer B)]	188
CS(=O)(=O)C(c1nnc(CNS(N)(=O)=O)o1)c1nc2ccc(-c3ccc(F)nc3)cc2s1 (stereo not drawn) [Example 79, N-((5-((6-(6-fluoro-3-pyridinyl)-1,3-benzothiazol-2-yl)(methylsulfonyl)methyl)-1,3,4-oxadiazol-2-yl)methyl)sulfamide]	< 10
COc1nc(-c2nnc(C(c3nc4ccc(-c5ccc(F)cc5)cc4s3)S(C)(=O)=O)o2)c(O)c(=O)[nH]1 (stereo not drawn) [Example 43, 6-(5-((6-(4-Fluorophenyl)benzo[d]thiazol-2-yl)(methylsulfonyl)methyl)-1,3,4-oxadiazol-2-yl)-5-hydroxy-2-methoxypyrimidin-4(3H)-one]	14
NS(=O)(=O)Cc1nnc(C(c2nc3c(F)cc(-c4ccccc4)cc3s2)S(=O)(=O)Cc2ccc(C(F)(F)F)cc2)o1 (stereo not drawn) [Example 90, (5-((4-Fluoro-6-phenylbenzo[d]thiazol-2-yl)((4-(trifluoromethyl)benzyl)sulfonyl)methyl)-1,3,4-oxadiazol-2-yl)methanesulfonamide]	< 10
